Legend:
[1] = test system: human whole blood; assay: LPS-Stimulation of Human Whole Blood, TNF-α release; type: cell-based; conditions: LPS 100 ng/ml, 6 hrs, read-out: Inhibitor activity versus human whole blood TNFα release
Method: LPS-Stimulation of Human Whole Blood
Whole blood was taken by venous puncture using heparinised vacutainers (Becton Dickinson) and diluted in an equal volume of RPMI1640 tissue culture media (Sigma). 100 μl was plated in V-bottomed 96 well tissue culture treated plates. 2 hrs after the addition of the inhibitor in 100 μl of RPMI1640 media, the blood was stimulated with LPS (E. coli strain 005:B5, Sigma) at a final concentration of 100 ng/ml and incubated at 37° C. in 5% CO2 for 6 hrs. TNF-α levels were measured from cell-free supernatants by sandwich ELISA (R&D Systems #QTA00B)

[2] = molecular target: T1, IKBKB (IKKβ) (Homo sapiens, UniProt O14920); assay: IKKβ Enzyme Assay (Z'-LYTE, Invitrogen); type: biochemical; conditions: ATP at or close to Km; read-out: Inhibitor activity versus IKKβ
T1 construct: purchased Invitrogen (Paisley, UK)
T1 sequence (O14920 1-756): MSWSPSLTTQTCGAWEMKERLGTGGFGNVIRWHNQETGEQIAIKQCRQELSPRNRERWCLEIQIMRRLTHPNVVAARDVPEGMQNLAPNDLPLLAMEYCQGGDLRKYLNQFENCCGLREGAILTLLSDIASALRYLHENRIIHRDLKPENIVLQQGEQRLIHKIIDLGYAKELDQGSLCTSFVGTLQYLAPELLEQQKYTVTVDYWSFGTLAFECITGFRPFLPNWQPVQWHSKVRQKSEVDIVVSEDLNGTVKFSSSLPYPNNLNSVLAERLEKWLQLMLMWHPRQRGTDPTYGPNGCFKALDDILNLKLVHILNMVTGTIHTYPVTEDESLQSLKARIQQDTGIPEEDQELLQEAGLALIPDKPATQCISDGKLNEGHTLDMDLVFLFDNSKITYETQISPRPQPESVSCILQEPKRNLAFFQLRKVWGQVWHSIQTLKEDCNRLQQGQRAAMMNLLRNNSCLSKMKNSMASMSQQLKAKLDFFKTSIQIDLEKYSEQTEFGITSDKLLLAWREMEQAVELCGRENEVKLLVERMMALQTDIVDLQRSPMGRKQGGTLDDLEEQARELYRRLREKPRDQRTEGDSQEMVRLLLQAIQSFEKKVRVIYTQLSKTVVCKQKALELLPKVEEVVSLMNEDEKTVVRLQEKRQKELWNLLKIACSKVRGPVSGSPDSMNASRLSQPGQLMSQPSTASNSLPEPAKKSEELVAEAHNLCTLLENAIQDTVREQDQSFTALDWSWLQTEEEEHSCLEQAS
Method: The ability of compounds to inhibit IKKβ kinase activity was measured in an assay performed by Invitrogen (Paisley, UK). The Z′-LYTE™ biochemical assay employs a fluorescence-based, coupled-enzyme format and is based on the differential sensitivity of phosphorylated and non-phosphorylated peptides to proteolytic cleavage. The peptide substrate is labelled with two fluorophores—one at each end—that make up a FRET pair. In the primary reaction, the kinase transfers the gamma-phosphate of ATP to a single serine or threonine residue in a synthetic FRET-peptide. In the secondary reaction, a site-specific protease recognizes and cleaves non-phosphorylated FRET-peptides. Phosphorylation of FRET-peptides suppresses cleavage by the Development Reagent. Cleavage disrupts FRET between the donor (i.e., coumarin) and acceptor (i.e. fluorescein) fluorophores on the FRET-peptide, whereas uncleaved, phosphorylated FRET-peptides maintain FRET. A […] method, which calculates the ratio (the Emission Ratio) of donor emission to acceptor emission after excitation of the donor fluorophore at 400 nm, is used to quantitate reaction progress.
The final 10 μL Kinase Reaction consists of 0.9-8.0 ng IKBKB (IKKβ), 2 μM Ser/Thr 05 Peptide and ATP in 50 mM HEPES pH 7.5, 0.01% BRIJ-35, 10 mM MgCl2, 1 mM EGTA. The assay is performed at an ATP concentration at, or close to the Km. After the 60 minute Kinase Reaction incubation at room temperature, 5 μL of a 1:128 dilution of Development Reagent is added. The assay plate is incubated for a further 60 minutes at room temperature and read on a fluorescence plate reader.
Duplicate data points are generated from a ⅓ log dilution series of a stock solution of test compound in DMSO. Nine dilutions steps are made from a top concentration of 10 μM, and a ‘no compound’ blank is included. Data is collected and analysed using XLfit software from IDBS. The dose response curve is curve fitted to model number 205 (sigmoidal dose-response model). From the curve generated, the concentration giving 50% inhibition is determined and reported.

[3] = test system: THP-1 cells; assay: LPS-Stimulation of THP-1 Cells, TNF-α release; type: cell-based; conditions: Homo sapiens, LPS 1 μg/ml, 6 hrs, read-out: Inhibitor activity versus THP-1 TNFα release
Method: LPS-Stimulation of THP-1 Cells
THP-1 cells were plated in 100 μl at a density of 4×10^4 cells/well in V-bottomed 96 well tissue culture treated plates and incubated at 37° C. in 5% CO2 for 16 hrs. 2 hrs after the addition of the inhibitor in 100 μl of tissue culture media, the cells were stimulated with LPS (E. coli strain 005:85, Sigma) at a final concentration of 1 μg/ml and incubated at 37° C. in 5% CO2 for 6 hrs. TNF-α levels were measured from cell-free supernatants by sandwich ELISA (R&D Systems #QTA00B)

Row | IC50 [1] [µM] | IC50 [2] [µM] | IC50 [3] [µM] | Compound
1 | > 5 |  |  | Cc1ccc(-c2cc(C(N)=O)c(NC(N)=O)s2)cc1CCN[C@@H](CC(C)C)C(=O)OC1CCCC1 [Example 23, Cyclopentyl N-(2-{5-[4-carbamoyl-5-(carbamoylamino)thiophen-2-yl]-2-methylphenyl}ethyl)-L-leucinate]
2 | 1 to 5 | 1 to 5 | 1 to 5 | CC(C)C[C@H](NCCc1cc(-c2cc(C(N)=O)c(NC(N)=O)s2)ccc1F)C(=O)OC1CCCC1 [Example 22, Cyclopentyl N-(2-{5-[4-carbamoyl-5-(carbamoylamino)thiophen-2-yl]-2-fluorophenyl}ethyl)-L-leucinate]
3 | 1 to 5 | < 1 | > 5 | CC(C)C[C@H](NCc1ccc(-c2cc(C(N)=O)c(NC(N)=O)s2)cc1)C(=O)OC1CCCC1 [Example 2, Cyclopentyl N-{4-[4-carbamoyl-5-(carbamoylamino)-2-thienyl]benzyl}-L-leucinate]
4 | 1 to 5 |  |  | CC(C)[C@H](NCc1cccc(-c2cc(C(N)=O)c(NC(N)=O)s2)c1)C(=O)OC1CCCC1 [Example 15, Cyclopentyl N-{3-[4-carbamoyl-5-(carbamoylamino)thiophen-2-yl]benzyl}-L-valinate]
5 | 1 to 5 | < 1 | 1 to 5 | NC(=O)Nc1sc(-c2ccc(/C=C/CN[C@H](C(=O)OC3CCCC3)c3ccccc3)cc2)cc1C(N)=O [Example 41, Cyclopentyl (2S)-{[(2E)-3-{4-[4-carbamoyl-5-(carbamoylamino)-2-thienyl]phenyl}prop-2-en-1-yl]amino}(phenyl)acetate]
6 | 1 to 5 | 1 to 5 | 1 to 5 | NC(=O)Nc1sc(-c2ccc(CN[C@H](C(=O)OC3CCCC3)c3ccccc3)cc2)cc1C(N)=O [Example 1, Cyclopentyl (2S)-({-4-[4-carbamoyl-5-(carbamoylamino)-2-thienyl]benzyl}amino)(phenyl)acetate]
7 | > 5 | < 1 | 1 to 5 | CC(C)C[C@H](NC/C=C/c1ccc(-c2cc(C(N)=O)c(NC(N)=O)s2)cc1)C(=O)OC(C)(C)C [Example 42, tert-Butyl N-[(2E)-3-{4-[4-carbamoyl-5-(carbamoylamino)-2-thienyl]phenyl}-prop-2-en-1-yl]-L-leucinate]
8 | 1 to 5 | > 5 |  | CC(C)C[C@H](NC/C=C/c1c(F)cc(-c2cc(C(N)=O)c(NC(N)=O)s2)cc1F)C(=O)OC1CCCC1 [Example 38, Cyclopentyl N-[(2E)-3-{4-[4-carbamoyl-5-(carbamoylamino)thiophen-2-yl]-2,6-difluorophenyl}prop-2-en-1-yl]-L-leucinate]
9 | 1 to 5 | > 5 |  | CC(C)C[C@H](NC/C=C/c1ccc(-c2cc(C(N)=O)c(NC(N)=O)s2)c(C(F)(F)F)c1)C(=O)OC1CCCC1 [Example 39, Cyclopentyl N-[(2E)-3-{4-[4-carbamoyl-5-(carbamoylamino)thiophen-2-yl]-3-(trifluoromethyl)phenyl}prop-2-en-1-yl]-L-leucinate]
10 | 1 to 5 | < 1 |  | CC(C)C[C@@H](NC/C=C/c1ccc(-c2cc(C(N)=O)c(NC(N)=O)s2)cc1)C(=O)OC1CCCC1 [Example 46, Cyclopentyl N-[(2E)-3-{4-[4-carbamoyl-5-(carbamoylamino)-2-thienyl]phenyl}prop-2-en-1-yl]-D-leucinate]
11 | 1 to 5 | < 1 |  | CC(C)(C)OC[C@H](NC/C=C/c1ccc(-c2cc(C(N)=O)c(NC(N)=O)s2)cc1)C(=O)OC1CCCC1 [Example 43, Cyclopentyl O-tert-butyl-N-[(2E)-3-{4-[4-carbamoyl-5-(carbamoylamino)thiophen-2-yl]phenyl}prop-2-en-1-yl]-L-serinate]
12 | > 5 |  |  | CC(C)C[C@H](NCCc1cc(-c2cc(C(N)=O)c(NC(N)=O)s2)ccc1Cl)C(=O)OC1CCCC1 [Example 24, Cyclopentyl N-(2-{5-[4-carbamoyl-5-(carbamoylamino)thiophen-2-yl]-2-chlorophenyl}ethyl)-L-leucinate]
13 | > 5 |  |  | C[C@@H](OC(C)(C)C)[C@H](NCCc1cccc(-c2cc(C(N)=O)c(NC(N)=O)s2)c1)C(=O)OC1CCCC1 [Example 21, Cyclopentyl O-tert-butyl-N-(2-{3-[4-carbamoyl-5-(carbamoylamino)-2-thienyl]phenyl}ethyl)-L-threoninate]
14 | > 5 |  |  | C[C@@H](OC(C)(C)C)[C@H](NC/C=C/c1ccc(-c2cc(C(N)=O)c(NC(N)=O)s2)cc1)C(=O)OC1CCCC1 [Example 47, Cyclopentyl O-tert-butyl-N-[(2E)-3-{4-[4-carbamoyl-5-(carbamoylamino)thiophen-2-yl]phenyl}prop-2-en-1-yl]-L-threoninate]
15 | < 1 | < 1 |  | NC(=O)Nc1sc(-c2cccc(CN[C@@H](CO)C(=O)OC3CCCC3)c2)cc1C(N)=O [Example 12, Cyclopentyl N-{3-[4-carbamoyl-5-(carbamoylamino)thiophen-2-yl]benzyl}-L-serinate]
16 | 1 to 5 |  |  | CC(C)(C)OC[C@H](NCCc1cccc(-c2cc(C(N)=O)c(NC(N)=O)s2)c1)C(=O)OC1CCCC1 [Example 20, Cyclopentyl O-tert-butyl-N-(2-{3-[4-carbamoyl-5-(carbamoylamino)-2-thienyl]phenyl}ethyl)-L-serinate]

Row | Compound | IC50 [1] [µM] | IC50 [2] [µM] | IC50 [3] [µM]
17 | NC(=O)Nc1sc(-c2cccc(CN[C@H](C(=O)OC3CCCC3)C3CCCCC3)c2)cc1C(N)=O [Example 10, Cyclopentyl (2S)-({3-[4-carbamoyl-5-(carbamoylamino)-2-thienyl]benzyl}amino)(cyclohexyl)acetate] | 1 to 5 | 1 to 5 | < 1
18 | NC(=O)Nc1sc(-c2ccc(/C=C/CN[C@H](C(=O)OC3CCCC3)C3CCCCC3)cc2)cc1C(N)=O [Example 44, Cyclopentyl (2S)-{[(2E)-3-{4-[4-carbamoyl-5-(carbamoylamino)thiophen-2-yl]phenyl}prop-2-en-1-yl]amino}(cyclohexyl)ethanoate] | > 5 | < 1 | 
19 | C[C@@H](O)[C@H](NC/C=C/c1ccc(-c2cc(C(N)=O)c(NC(N)=O)s2)cc1)C(=O)OC1CCCC1 [Example 48, Cyclopentyl N-[(2E)-3-{4-[4-carbamoyl-5-(carbamoylamino)thiophen-2-yl]phenyl}prop-2-en-1-yl]-L-threoninate] | 1 to 5 |  | 
20 | CC(C)(C)OC(=O)[C@@H](NC/C=C/c1ccc(-c2cc(C(N)=O)c(NC(N)=O)s2)cc1)C1CCCCC1 [Example 45, tert-butyl (2S)-{[(2E)-3-{4-[4-carbamoyl-5-(carbamoylamino)thiophen-2-yl]phenyl}prop-2-en-1-yl]amino}(cyclohexyl)ethanoate] | > 5 | < 1 | 

— US8003695B2 (Chroma Therapeutics Ltd., priority 2006, dated 2011)
